Measurements: US20070264646A1, “Hbv Particles Containing Hbv-Rna” (Advanced Life Science Institute, Inc., priority 2003, published 2007)

What was measured:
HBc antigen = assay: Measurement of the amount of HBc antigen (sandwich immunoassay, luminescence); type: in vivo, HBV patient; conditions: serum, before administration 610
Excerpt: Three monoclonal antibodies HB44 (recognition site: amino acids 31-49), HB61 (recognition site: amino acids 131-140) and HB114 (recognition site: amino acids 1-81) that react both HBc antigen and HBe antigen were coated and immobilized to a microtiter plate. After washing with PBS, it was blocked with a solution containing casein and, after removing the solution, it was dried.
Fifty μl of the pretreatment solution (15% sodium dodecyl sulfate [SDS], 3% CHAPS, 1% hexadecyltrimethyl ammonium bromide) was mixed with 100 μl of the sample (serum, plasma etc.) and treated at 70° C. for 30 minutes.
To each antibody-immobilized well, 100 μl of the reaction buffer (pH 8.0) and 50 μl of the pretreated sample were added, and the plate was reacted under gentle stirring at room temperature for 2 hours.
After washing the wells, 100 μl of a solution containing alkaline phosphatase-labelled HB50 (recognition site: amino acids 168-176) monoclonal antibody was added to each well, and the plate was incubated at room temperature for 1 hour.
After washing the wells, 100 μl of the CDP Star with Emerald II (Applied Biosystems) was added, and the intensity of luminescence after reacting at room temperature for 20 minutes was measured using a microtiter plate luminometer. It was compared to the intensity of luminescence of the standard antigen and the concentration of HBc antigen in the sample was calculated (Table 1).

[1] = tested on: HBV gene (HBV-DNA and RNA) in the serum; assay: Quantification of the HBV gene (DNA+RNA) in the serum by reverse transcription plus TaqMan PCR; type: in vivo, HBV patient; conditions: one month before administration 7.8 × 10^6
Experimental: (§1) In order to isolate the HBV gene in Dane particles (the infective HBV particle: the complete HBV particle), the HBV gene in a serum from a HBV patient was purified using High Pure Viral Nucleic Acid kit (Roche Diagnostics) in the following method. One hundred μl of the serum from a HBV patient who received lamivudine treatment was mixed with 100 μl of the serum from a normal healthy subject to prepare 200 μl of a serum sample. To the serum sample, 200 μl of a working solution {50 μl of poly(A) carrier RNA (4 mg/ml) and 2.5 ml of the binding buffer [6 M guanidine-HCl, 10 mM urea, 10 mM Tris-HCl (pH 4.4), 20% Triton X-100 (v/v)]} and 50 μl of Proteinase K (18 mg/ml) were added and mixed, and incubated at 72° C. for 10 minutes.
(§2) One hundred μl of isopropanol and the sample were mixed, and the mixture was transferred into a High Pure filter tube. It was centrifuged at 8000 rpm for 1 minute, and after discarding the flowthrough, 500 μl of the inhibitor removal buffer [5 M guanidine-HCl, 20 mM Tris-HCl (pH 6.6)] was injected and then centrifuged at 8000 rpm for 1 minute. After adding 450 μl of the washing buffer [20 mM NaCl, 2 mM Tris-HCl (pH 7.5)], it was centrifuged at 8000 rpm for 1 minute. Then it was washed again in 450 μl of the washing buffer and was centrifuged at 13000 rpm for 10 seconds. Fifty μl of sterile water was added to the filter tube, which was centrifuged at 8000 rpm for 1 minute, and the flowthrough was collected to prepare a solution of the HBV gene in the serum.
In order to measure the amount of HBV gene in the serum, the step of the reverse transcriptase reaction was added. To 10 μl of the HBV gene solution, 1 μl of 20 mM dNTP Mix (10 mM dATP, 10 mM dGTP, 10 mM dCTP, 10 mM dTTP) and 0.2 μl of 10 μM HBS-R primer were mixed, and after incubated at 65° C. for 5 minutes, it was quickly cooled on ice. […]
By applying 4 μl of this reaction mixture to the above HBV-DNA quantification system, the amount of the HBV gene in the serum, i.e. the total amount of HBV-DNA and RNA in the serum, can be measured. […]

HBV-RNA in the serum = assay: Amount of HBV-RNA in the serum, estimated by subtracting HBV-DNA from HBV gene; type: in vivo, HBV patient; conditions: one month before administration 5.4 × 10^6
Experimental: In order to measure the amount of HBV gene in the serum, the step of the reverse transcriptase reaction was added. To 10 μl of the HBV gene solution, 1 μl of 20 mM dNTP Mix (10 mM dATP, 10 mM dGTP, 10 mM dCTP, 10 mM dTTP) and 0.2 μl of 10 μM HBS-R primer were mixed, and after incubated at 65° C. for 5 minutes, it was quickly cooled on ice. Four μl of 5× reverse transcription buffer [250 mM Tris-HCl (pH 8.3), 375 mM KCl, 15 mM MgCl2], 0.2 μl of 0.1 M DTT, 0.6 μl of RNase inhibitor (40 units/μl) and 3 μl of sterile water were mixed and then subjected to an annealing reaction at 42° C. for 2 minutes, to which 1 μl of the reverse transcriptase (200 units/μl) was added to prepare a 20 μl of a reaction mixture, which was subjected to a reverse transcription reaction at 42° C. for 50 minutes and the inactivation of the reverse transcriptase was performed at 70° C. for 15 minutes.
By applying 4 μl of this reaction mixture to the above HBV-DNA quantification system, the amount of the HBV gene in the serum, i.e. the total amount of HBV-DNA and RNA in the serum, can be measured. Also, by subtracting the amount of HBV-DNA from the amount of the HBV gene, the amount of HBV-RNA in the serum can be estimated (Table 1).

HBV-DNA in the serum = assay: Quantification of HBV-DNA in the serum by TaqMan PCR, patient under lamivudine treatment; type: in vivo; conditions: one month before administration 2.4 × 10^6
Experimental: as §1, §2
The quantification of HBV-DNA in the serum was performed by the TaqMan PCR method that employs the Light Cycler (Roche Diagnostics). […]
The condition included pretreatment at 95° C. for 10 minutes, DNA denaturation at 95° C. for 5 seconds, annealing at 60° C. for 15 seconds and DNA synthesis at 72° C. for 8 seconds, and fluorescence emitted from the TaqMan probe was measured to quantify the amount of HBV-DNA in the serum (Table 1).

For `Nc1ccn([C@@H]2CS[C@H](CO)O2)c(=O)n1` [lamivudine], the “Amount of HBc antigen” value (HBc antigen; 8 months after administration) was 21 pg/mL, the “Amount of HBc antigen” value (HBc antigen; 19 months after administration) was 20 pg/mL and the “Amount of HBc antigen” value (HBc antigen; one month after administration) was 56 pg/mL. The “Amount of HBV gene” value ([1]; 8 months after administration) was 7.2 × 10^3 copies/ml, the “Amount of HBV gene” value ([1]; 19 months after administration) was 2.2 × 10^3 copies/ml and the “Amount of HBV gene” value ([1]; one month after administration) was 1.1 × 10^5 copies/ml. The “Amount of HBV-RNA” value (HBV-RNA in the serum; 8 months after administration) was 7.1 × 10^3 copies/ml, the “Amount of HBV-RNA” value (HBV-RNA in the serum; 19 months after administration) was 2.2 × 10^3 copies/ml and the “Amount of HBV-RNA” value (HBV-RNA in the serum; one month after administration) was 1.0×10^5 copies/ml. For the same molecule, the “Amount of HBV-DNA” value (HBV-DNA in the serum; 8 months after administration) was 1.0 × 10^2 copies/ml, the “Amount of HBV-DNA” value (HBV-DNA in the serum; 19 months after administration) was 0 copies/ml and the “Amount of HBV-DNA” value (HBV-DNA in the serum; one month after administration of lamivudine) was 6.1×10^3 copies/ml.
